In assay [1] the target is T1, purified and unphosphorylated T315I Abl kinase domain (ABL_T315I_0P) (Mus musculus, UniProt P00520, T315I).
T1 construct: The c-Abl T3151 KD (kinase domain) was purified as follows; Met-Ser-Leu (vector-derived residues) (N); made in house; host or cells: E. coli BL21(DE3) strains (Codon+RIL, or pSA0145 for the lambda phosphatase co-expression plasmid)
T1 sequence (P00520 242-493 T315I limits assumed): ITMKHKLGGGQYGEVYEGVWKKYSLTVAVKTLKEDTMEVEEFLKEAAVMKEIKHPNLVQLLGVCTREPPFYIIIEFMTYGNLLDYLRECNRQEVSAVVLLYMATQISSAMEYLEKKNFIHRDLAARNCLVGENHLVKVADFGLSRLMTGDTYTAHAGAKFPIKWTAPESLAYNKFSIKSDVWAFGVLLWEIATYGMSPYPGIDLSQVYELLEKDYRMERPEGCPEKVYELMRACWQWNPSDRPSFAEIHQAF
Kind of assay: c-Abl T315I (unphosphorylated kinase domain) pyruvate kinase/lactate dehydrogenase coupled enzyme assay. Format: biochemical. Particulars: 10 μM ATP.

The target of another assay is T2, ABL P210WT BAF3 cells (Homo sapiens, UniProt P00519).
T2 construct: ABL P210WT BAF3; fused on or other part: P11274 (Breakpoint cluster region protein)
The assay is described as follows: 96-well XTT cell survival assay, BaF3 ABL P210WT. Format: cell-based. Particulars: ABL P210 WT, 72 hours, read-out: CELL BIO ABL P210WT BAF3 XTT (IC50). The method in brief:
(§1)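 Ba/F3 cells in RPMI 1640 with 10% FBS (IL-3 medium for maintenance) were seeded at 5000-8000 cells/well and exposed to compound dilutions in duplicate for 72 h at 37° C. Viability read by XTT/PMS, absorbance 405 nm minus 650 nm after 2-6 h.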
For orientation: Tetrazolium dyes change colour on reduction, which living cells bring about.

The target of the next assay is T3, ABL T315I BAF3 cells (Homo sapiens, UniProt P00519, T315I, cells depend on it).
T3 construct: ABL T315I BAF3; fused on or other part: P11274 (Breakpoint cluster region protein)
The assay is described as follows: 96-well XTT cell survival assay, BaF3 ABL T315I. Format: cell-based. Particulars: 72 hours, read-out: CELL BIO ABL T315I BAF3 XTT (IC50). The procedure, abridged:
as §1

As to `COc1ccc(F)cc1-c1c[nH]c2ncc(-c3cncc(C(O)c4ncccc4F)c3)c(Cl)c12` (stereo not drawn) [{5-[4-Chloro-3-(5-fluoro-2-methoxy-phenyl)-1H-pyrrolo[2,3-b]pyridin-5-yl]-pyridin-3-yl}-(3-fluoro-pyridin-2-yl)-methanol], in assay [1], the “ABL_T315I_0P (IC50)” value is listed as “D (<0.01 μM)”. The figures for the GI50 at ABL P210WT BAF3 cells and at ABL T315I BAF3 cells were below 10 nM and 10 to 100 nM, respectively.
For the compound `COc1ccccc1-c1c[nH]c2ncc(Br)c(SC)c12` [5-Bromo-3-(2-methoxy-phenyl)-4-methylsulfanyl-1H-pyrrolo[2,3b]pyridine], in assay [1], the “ABL_T315I_0P (IC50)” value is “B (1.0-0.1 μM)”. Moreover, the GI50 on ABL P210WT BAF3 cells and at ABL T315I BAF3 cells was above 1000 nM each time.
As to `CN(C)C(=O)Cc1cncc(-c2cnc3[nH]cc(-c4ccccc4)c3c2Cl)c1` [2-[5-(4-Chloro-3-phenyl-1H-pyrrolo[2,3-b]pyridin-5-yl)-pyridin-3-yl]-N,N-dimethyl-acetamide], the “ABL_T315I_0P (IC50)” value in assay [1] is on record as “D (<0.01 μM)”. Besides, the GI50 at ABL P210WT BAF3 cells and on ABL T315I BAF3 cells was above 1000 nM throughout.
On to `CN(C)C(=O)c1cncc(-c2cnc3[nH]cc(-c4cccc(F)c4F)c3c2Cl)c1` [5-[4-Chloro-3-(2,3-difluoro-phenyl)-1H-pyrrolo[2,3-b]pyridin-5-yl]-N,N-dimethyl-nicotinamide], for which the “ABL_T315I_0P (IC50)” value in assay [1] is “D (<0.01 μM)”. Moreover, the GI50 on ABL P210WT BAF3 cells and on ABL T315I BAF3 cells was 100 to 1000 nM in each case.
For the compound `CN(C)C(=O)c1nc(-c2cnc3[nH]cc(-c4ccc(F)cc4)c3c2Cl)cnc1N` [3-amino-6-[4-chloro-3-(4-fluoro-phenyl)-1H-pyrrolo[2,3-b]pyridin-5-yl]-pyrazine-2-carboxylic acid dimethylamide], the “ABL_T315I_0P (IC50)” value in assay [1] is given as “C (0.1-0.01 μM)”. Further, the GI50 at ABL P210WT BAF3 cells and at ABL T315I BAF3 cells was 100 to 1000 nM throughout.
Consider `CN(C)C(=O)c1cc(-c2cnc3[nH]cc(-c4ccccc4F)c3c2Cl)cnc1N` [2-Amino-5-[4-chloro-3-(2-fluoro-phenyl)-1H-pyrrolo[2,3-b]pyridin-5-yl]-N,N-dimethyl-nicotinamide], for which the “ABL_T315I_0P (IC50)” value in assay [1] is “D (<0.01 μM)”. The GI50 at ABL P210WT BAF3 cells and on ABL T315I BAF3 cells was 100 to 1000 nM in each case.
Turning to `CN(C)C(=O)c1cncc(-c2cnc3[nH]cc(-c4ccc(F)cc4)c3c2Cl)c1`, in assay [1], the “ABL_T315I_0P (IC50)” value is on record as “C (0.1-0.01 μM)”. For the same compound, the results for the GI50 on ABL P210WT BAF3 cells and on ABL T315I BAF3 cells were 100 to 1000 nM and above 1000 nM, respectively.
The matching figures for `COc1ncccc1-c1c[nH]c2ncc(-c3cncc(C(O)C(=O)N(C)C)c3)c(Cl)c12` (stereo not drawn) [2-{5-[4-Chloro-3-(2-methoxy-pyridin-3-yl)-1H-pyrrolo[2,3-b]pyridin-5-yl]-pyridin-3-yl}-2-hydroxy-N,N-dimethyl-acetamide]: “D (<0.01 μM)”, 10 to 100 nM and 100 to 1000 nM.
The matching figures for `CN(C)C(=O)c1cncc(-c2cnc3[nH]cc(-c4cccc(F)c4F)c3c2Cl)n1`: “D (<0.01 μM)”, 100 to 1000 nM and 100 to 1000 nM.
`COc1ccccc1-c1c[nH]c2ncc(Br)c(N)c12` [5-Bromo-3-(2-methoxy-phenyl)-1H-pyrrolo[2,3-b]pyridin-4-ylamine]: in assay [1], the “ABL_T315I_0P (IC50)” value is given as “C (0.1-0.01 μM)”. Further, the GI50 on ABL P210WT BAF3 cells and on ABL T315I BAF3 cells was above 1000 nM throughout.
For `CCN(C)C(=O)c1cc(-c2cnc3[nH]cc(-c4cc(F)ccc4F)c3c2Cl)cnc1N` [2-Amino-5-[4-chloro-3-(2,5-difluoro-phenyl)-1H-pyrrolo[2,3-b]pyridin-5-yl]-N-ethyl-N-methyl-nicotinamide], the “ABL_T315I_0P (IC50)” value in assay [1] is “D (<0.01 μM)”. The GI50 on ABL P210WT BAF3 cells and on ABL T315I BAF3 cells was 100 to 1000 nM each time.
With `COc1ccccc1-c1c[nH]c2ncc(-c3cncc(CC(=O)N(C)C)c3)c(Cl)c12` [2-{5-[4-Chloro-3-(2-methoxy-phenyl)-1H-pyrrolo[2,3-b]pyridin-5-yl]-pyridin-3-yl}-N,N-dimethyl-acetamide], the “ABL_T315I_0P (IC50)” value in assay [1] was “D (<0.01 μM)”. Besides, the GI50 at ABL P210WT BAF3 cells and at ABL T315I BAF3 cells was 10 to 100 nM each time.
Regarding `Cn1nccc1C(O)c1cncc(-c2cnc3[nH]cc(-c4ccccc4F)c3c2Cl)c1` (stereo not drawn) [{5-[4-Chloro-3-(2-fluoro-phenyl)-1H-pyrrolo[2,3-b]pyridin-5-yl]-pyridin-3-yl}-(2-methyl-2H-pyrazol-3-yl)-methanol], the “ABL_T315I_0P (IC50)” value in assay [1] was “D (<0.01 μM)”. The GI50 on ABL P210WT BAF3 cells and on ABL T315I BAF3 cells was above 1000 nM each time.

These data come from US8158647B2, “Substituted pyrrolopyridines and pyrazolopyridines as kinase modulators” (SGX Pharmaceuticals, Inc., priority 2007, dated 2012).
